Measurements from PMC7922564, “Molecular Insights into an Antibiotic Enhancer Action of New Morpholine-Containing 5-Arylideneimidazolones in the Fight against MDR Bacteria” (International Journal of Molecular Sciences, 2021).
Where two headings read alike, the source gives them in different places.

Assays:
K. aerogenes Ea-289 = test: MIC reduction assay (antibiotic adjuvant), K. aerogenes Ea-289; type: cell-based, Klebsiella aerogenes;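 also: compound at no more than one quarter of its own MIC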
Experimental: At first, MIC values of compounds were determined (Table S15, Supplementary). Next, their abilities to reduce MICs of the AcrAB-TolC substrates doxycycline (a tetracycline-class antibiotic) and erythromycin were studied (Table S16, Supplementary).
(§1) A subset of compounds, namely 7, 12–16, 19, 20, was also examined for the potential to increase the effectiveness of the antibiotics chloramphenicol, erythromycin, doxycycline, and the fluoroquinolone antibiotic norfloxacin, which all are substrates for AcrAB-TolC in K. aerogenes. In addition to strain Ea-289, the adjuvant-like effect of the compounds was investigated in strain CM-64, which also overexpresses the AcrAB-TolC efflux pump, although it has no changes in porin content, and in the Ea-289 derivatives, i.e., Ea-294 and Ea-308, which are devoid of AcrAB (Table S17, Supplementary).
(§2) Initially, MICs of a series of imidazolone derivatives were assessed against susceptible (reference) and MDR strains of staphylococci. Next, MIC values of the aforementioned antibiotics were determined in the absence and presence of imidazolone derivatives to assess the chemosensitizing effect of these compounds. […] 5-arylideneimidazolones and 5-arylidenethiazolones, which precipitated after addition to bacterial suspension in MH II medium, were tested at the highest concentrations at which precipitation was not observed. […] Antibacterial activity of compounds and antibiotics ampicillin, vancomycin, ciprofloxacin, and erythromycin was recorded as the lowest concentration of molecules able to inhibit bacterial growth after 18 h incubation at 37 °C. The incubation of bacterial strains exposed to oxacillin paired with compounds tested was conducted at 35 °C and extended to 24 h due to frequent occurrence of heterogeneity among MRSA strains. The results are presented as activity gain (A) parameter which was calculated as ratio of MIC of a certain antibiotic (MICAnt) to its MICAnt+Comp, observed in combination with a tested compound (7, 12–16, 19, or 20; Equation (1)). (1) A=(MICAnt/MICAnt+Comp)
(§3) MIC values of 5-arylideneimidazolone derivatives were determined following CLSI recommendations as in the methods described for S. aureus (Section 3.3.1).

[1] = system: K. aerogenes Ea-289 (overexpression of AcrAB-TolC); test: MIC of compounds, K. aerogenes Ea-289; type: cell-based; details: Klebsiella aerogenes
Experimental: At first, MIC values of compounds were determined (Table S15, Supplementary). Next, their abilities to reduce MICs of the AcrAB-TolC substrates doxycycline (a tetracycline-class antibiotic) and erythromycin were studied (Table S16, Supplementary). […]
(§4) Determination of MIC values, i.e., intrinsic antibacterial activity, of products and antibiotics (oxacillin, ampicillin, vancomycin, ciprofloxacin, and erythromycin) in the presence and absence of compounds tested was conducted by the use of a standard 2-fold microdilution method in cation-adjusted Mueller Hinton broth following the Clinical and Laboratory Standards Institute (CLSI) guidelines. The MIC values were detected using an Infinite M200 pro Tecan microplate reader (Tecan® France, SA-Lyon, France). MIC determinations were conducted in 96-well microtiter plates and repeated 3–4 times.
as §3

S. aureus ATCC 25923 = test: MIC determination (microdilution), S. aureus ATCC 25923; type: cell-based, Staphylococcus aureus; details: for MIC: Staphylococcus aureus, ATCC25923, unstarred values of column MIC value/no precipitation, read-out: MIC value
Experimental: as §4, §2

[2] = system: K. aerogenes Ea-294, Ea-308; test: MIC reduction assay (antibiotic adjuvant), K. aerogenes Ea-294, Ea-308; type: cell-based, Klebsiella aerogenes; details: doxycycline, chloramphenicol, norfloxacin, erythromycin;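 also: compound at no more than one quarter of its own MIC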
Excerpt: as §1, §2, §3

MRSA 19449 = test: MIC determination (microdilution), MRSA 19449; type: cell-based, Staphylococcus aureus; details: for MIC: Staphylococcus aureus, MRSA, no precipitation
Experimental: as §4, §2

[3] = system: K. aerogenes Ea-294, Ea-308 (devoid of AcrAB); test: MIC of compounds, K. aerogenes Ea-294, Ea-308; type: cell-based; details: Klebsiella aerogenes, read-out: Minimal Inhibitory Concentration (MIC)
Excerpt: as §1, §4, §3

[4] = system: K. aerogenes CM-64 (overexpression of AcrAB-TolC); test: MIC of compounds, K. aerogenes CM-64; type: cell-based; details: Klebsiella aerogenes, read-out: Minimal Inhibitory Concentration (MIC)
Excerpt: as §1, §4, §3

[5] = system: AcrAB-TolC efflux pump in K. aerogenes strain Ea-289; test: Real-time efflux (RTE) assay, 1,2'-dNA extrusion; type: cell-based, Klebsiella aerogenes; details: compound 100 µM; IE=100% total inhibition of efflux
Experimental: Compounds 7, 12–16, 19, and 20 were also assessed for their EPI property in K. aerogenes strain Ea-289 with the use of a real-time efflux (RTE) assay. Results for compounds 16 and 20 were previously described. The experiment is based on the measurement of the extrusion of a fluorescent dye from bacterial cells overproducing efflux pump transporters in the presence and absence of compounds tested. The dye used in this assay, 1,2’ –dinaphthylamine (1,2’-dNA), is a substrate for the AcrAB-TolC efflux pump, and is strongly fluorescent upon incorporation into a phospholipid bilayer, although it is almost non-fluorescent in an aqueous solution [37, 38].
A likewise strong blocking efficacy (IE = 83 %) was also noticed for compound 12, while the lowest inhibitory effect was found for compound 13 (IE = 23 %).
The inhibitory activity of 5-arylideneimidazolone derivatives towards AcrAB-TolC mediated efflux of 1,2’-dNA was detected in K. aerogenes strain Ea-289 by using a real-time fluorometric method. In a first step, bacterial cells were loaded with the environment-sensitive fluorescent membrane probe, 1,2’-dNA, in the presence of the EPI carbonyl cyanide m-chlorophenylhydrazone (CCCP) which inactivated the pump by dissipating membrane potential. Next, compounds tested were added at the concentration of 100 µM and the efflux was energizing by automated injection of glucose at a dose of 50 µM. The fluorescence intensity was measured in a microplate reader (Tecan) with an excitation wavelength of λex = 370 nm and an emission wavelength of λem = 420 nm.

K. aerogenes CM-64 = test: MIC reduction assay (antibiotic adjuvant), K. aerogenes CM-64; type: cell-based, Klebsiella aerogenes; details: doxycycline, chloramphenicol, norfloxacin, erythromycin;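 also: compound at no more than one quarter of its own MIC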
Excerpt: as §1, §2, §3

[6] = doxycycline, chloramphenicol, norfloxacin, erythromycin
[7] = read-out: MIC value/no precipitation
[8] = read-out: Minimal Inhibitory Concentration (MIC)

| Structure (SMILES) | A (activity gain) (K. aerogenes Ea-289; doxycycline) | A (activity gain) (K. aerogenes Ea-289; [6]) | A (activity gain) (K. aerogenes Ea-289; erythromycin) | MIC [1, 7] | MIC [1, 8] | MIC (S. aureus ATCC 25923) | A (activity gain) [2] | MIC (MRSA 19449) | MIC [3] | MIC [4] | Inhibition efficiency (IE) towards extrusion of 1,2'-dNA [5] | A (activity gain) (K. aerogenes CM-64) | MIC of the antibiotic alone (S. aureus ATCC 25923; oxacillin alone) | MIC of the antibiotic alone (MRSA 19449; oxacillin alone) |
| --- | --- | --- | --- | --- | --- | --- | --- | --- | --- | --- | --- | --- | --- | --- |
| O=C1NC(N2CCOCC2)=N/C1=C\c1ccc(-c2ccccc2)cc1 [Compound 7] | 1 | 1 | 1 | > 250 µM | > 2000 µM | 31.2 to 250 µM | 1 | 31.2 to 250 µM | 2000 µM | > 2000 µM | 59% | 1 | – | – |
| O=C1NC(N2CCC(N3CCOCC3)CC2)=N/C1=C\c1ccc(-c2ccccc2)cc1 [Compound 8] | 1 | – | 1 | > 250 µM | – | – | – | 31.2 to 250 µM | – | – | – | – | – | – |
| O=C1NC(N2CCC(N3CCOCC3)CC2)=N/C1=C\c1c2ccccc2cc2ccccc12 [Compound 13] | 1 | 1 | 1 | > 250 µM | > 2000 µM | 31.2 to 250 µM | 1 | 31.2 to 250 µM | 2000 µM | > 2000 µM | 23% | 1 | – | – |
| NC1=N/C(=C\c2ccc(Oc3ccccc3)cc2)C(=O)N1CCCN1CCOCC1 [Compound 17] | 1 | – | 1 | > 250 µM | – | – | – | 31.2 to 250 µM | – | – | – | – | – | – |
| NC1=N/C(=C\c2cc3ccccc3c3ccccc23)C(=O)N1CCCN1CCOCC1 [Compound 21] | 1 | – | 1 | > 250 µM | – | 31.2 to 250 µM | – | 31.2 to 250 µM | – | – | – | – | – | – |
| Cc1onc(-c2ccccc2)c1C(=O)N[C@@H]1C(=O)N2[C@@H]1SC(C)(C)[C@@H]2C(=O)O [oxacillin, reference compound] | – | – | – | – | – | – | – | – | – | – | – | – | 0.25 µg/mL | 256 µg/mL |
